Measurements published in patent publication US20260001928A1 (CORTERIA PHARMACEUTICALS, priority 2022, published 2026).
*1 amine or outer side, *2 acyl side, *3 side chain or, on linkers, in order; H or OH if unused. Where a SMILES comes first, the peptide text is derived from it. Side-chain parts run from the residue outwards. [ ]: non-standard residue; d: D form. The star is where a group is joined. C18 diacid = O=C(O)CCCCCCCCCCCCCCCCC(=O)*; C16 diacid = O=C(O)CCCCCCCCCCCCCCC(=O)*; γGlu = O=C(O)[C@H](CCC(=O)[*:2])N[*:1]; NMeI = CC[C@H](C)[C@H](NC)C(=O)O; Dap = NC[C@H](N)C(=O)O; AEEA = NCCOCCOCC(=O)O; Aib = CC(C)(N)C(=O)O

Assays:
human CRF2a receptor = biological target: T1, human CRF2a receptor (Homo sapiens, UniProt Q13324); test: Activity at human CRF2a receptor, cAMP functional assay in TeloHEAC cells; assay type: cell-based; details: TeloHEAC cells stably expressing human CRF2a receptor, relative to urocortin 2 (100 nM = 100%)
T1 construct: expressed in transfected cells; host or cells: TeloHEAC cells
T1 sequence (Q13324 1-411): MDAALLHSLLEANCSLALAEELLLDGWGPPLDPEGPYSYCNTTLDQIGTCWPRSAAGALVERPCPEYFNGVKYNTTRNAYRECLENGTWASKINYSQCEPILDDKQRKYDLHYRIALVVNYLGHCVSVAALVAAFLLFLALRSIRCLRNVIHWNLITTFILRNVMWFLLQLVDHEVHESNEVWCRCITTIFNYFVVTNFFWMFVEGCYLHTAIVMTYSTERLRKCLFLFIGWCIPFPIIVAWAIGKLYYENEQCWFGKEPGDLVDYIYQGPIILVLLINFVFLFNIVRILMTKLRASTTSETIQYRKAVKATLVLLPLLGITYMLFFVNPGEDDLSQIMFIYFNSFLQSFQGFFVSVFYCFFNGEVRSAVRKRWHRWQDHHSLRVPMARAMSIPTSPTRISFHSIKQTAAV
How it was run: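 TeloHEAC cells stably expressing human CRF2a (10000 cells/well) were treated with 16-point 1:2 compound dilutions in HBSS/20 mM HEPES with IBMX for 30 min at 37° C. cAMP was read by HTRF (665/620 nm ratio). EC50 was the concentration giving 50% activation, with 100 nM urocortin 2 set as 100%.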

CFR1R receptor = biological target: T2, CFR1R receptor (Homo sapiens, UniProt P34998); test: Activity at anti-target CFR1R receptor, cAMP assay in CRF1R-overexpression CHO-K1 cells; assay type: cell-based; details: 100% = Sauvagine at 100 nM; for EC50: cAMP
T2 construct: host or cells: CHO-K1 (clone 2)
T2 sequence (P34998 24-415): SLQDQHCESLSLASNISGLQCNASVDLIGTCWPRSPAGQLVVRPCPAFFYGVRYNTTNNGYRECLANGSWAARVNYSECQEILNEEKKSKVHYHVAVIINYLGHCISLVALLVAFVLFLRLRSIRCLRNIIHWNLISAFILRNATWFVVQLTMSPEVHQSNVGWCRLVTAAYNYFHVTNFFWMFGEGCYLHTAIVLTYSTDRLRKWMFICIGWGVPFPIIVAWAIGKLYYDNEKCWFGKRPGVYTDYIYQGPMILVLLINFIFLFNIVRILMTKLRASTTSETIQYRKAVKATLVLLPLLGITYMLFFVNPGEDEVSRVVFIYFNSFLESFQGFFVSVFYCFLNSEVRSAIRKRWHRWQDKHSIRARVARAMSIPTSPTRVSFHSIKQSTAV
How it was run: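 Run as for the TeloHAEC line, except the full-activation control well received Sauvagine (100 nM) and final density was 4000 cells/well. Cells from clone 2 came from frozen aliquots of near-confluent cultures.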

[1] = Chemical stability in buffer (pH 7.4 / pH 4.5), % purity loss; assay type: physicochemical; details: 40° C. vs 5° C., 14 or 28 days; for Buffer stability pH 4.5 % purity loss: 100 mM acetate buffer pH 4.5; for Buffer stability pH 7.4 % purity loss: 100 mM phosphate buffer pH 7.4
How it was run: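 Compounds dissolved at 10 mg/mL target in 100 mM phosphate (pH 7.4) or 100 mM acetate (pH 4.5) buffer for 1 h at room temperature, then centrifuged. Diluted supernatant stored at 5 °C or 40 °C for 14 or 28 days; % purity loss by LC-UV.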

Sprague Dawley rats = test: Effect on systolic blood pressure, telemetry in Sprague Dawley rats; assay type: in vivo, rat; details: 0.1 mg/kg SC; for Systolic blood pressure (Mean) % change from baseline, 8 h / Systolic blood pressure (Mean) % change from baseline, 12 h / Systolic blood pressure (Mean) % change from baseline, 24 h: n=2; for Duration of action: last time point with an effect on BP still observed
How it was run: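 Sprague Dawley rats with abdominal-aorta telemetry catheters, recovered ≥10 days, received 0.1 mg/kg SC of compound or vehicle. Systolic pressure recorded 1 h pre-dose as baseline, then continuously up to 48 hours, expressed as % change from baseline; duration of action is last time point with a BP effect (n=2).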

Row | EC50 (human CRF2a receptor) | Emax (% I) (CFR1R receptor) | EC50 (CFR1R receptor) | Buffer stability pH 4.5 % purity loss [1] | Buffer stability pH 7.4 % purity loss [1] | Compound | Systolic blood pressure (Mean) % change from baseline, 8 h (Sprague Dawley rats) | Systolic blood pressure (Mean) % change from baseline, 12 h (Sprague Dawley rats) | Systolic blood pressure (Mean) % change from baseline, 24 h (Sprague Dawley rats) | Duration of action (Sprague Dawley rats)
1 | 0.42 nM | 5 % I | > 250 nM | 28.9% | 73.5% | CC[C@H](C)[C@H](NC(C)=O)C(=O)N[C@H](C(=O)N[C@@H](CC(C)C)C(=O)N[C@@H](CO)C(=O)N[C@@H](CC(C)C)C(=O)N[C@@H](CC(=O)O)C(=O)N[C@@H](C(=O)N1CCC[C@H]1C(=O)N[C@H](C(=O)N[C@@H](CCCCN)C(=O)N[C@@H](CC(C)C)C(=O)N[C@@H](CCCCNC(=O)CC[C@H](NC(=O)CCCCCCCCCCCCCCC(=O)O)C(=O)O)C(=O)N[C@@H](CCCCN)C(=O)N[C@H](C(=O)N[C@@H](CC(C)C)C(=O)N[C@@H](CC(C)C)C(=O)N[C@@H](CCC(=O)O)C(=O)N[C@@H](CCC(N)=O)C(=O)N[C@@H](CCC(=O)O)C(=O)N[C@@H](CCCCN)C(=O)N[C@@H](CCC(N)=O)C(=O)N[C@@H](CCCCN)C(=O)N[C@@H](CCCCN)C(=O)N[C@@H](CCC(N)=O)C(=O)N[C@@H](CCCNC(=N)N)C(=O)N[C@@H](CCC(=O)O)C(=O)N[C@@H](CCC(N)=O)C(=O)N[C@@H](C)C(=O)N[C@@H](CCC(=O)O)C(=O)N[C@H](C(=O)N[C@@H](CC(N)=O)C(=O)N[C@@H](CN)C(=O)N[C@@H](CCC(N)=O)C(=O)N[C@H](C(=O)N[C@@H](CC(C)C)C(=O)N[C@@H](C)C(=O)N[C@@H](CCC(N)=O)C(=O)N[C@H](C(N)=O)C(C)C)[C@@H](C)CC)[C@@H](C)O)[C@@H](C)CC)[C@@H](C)CC)C(C)C)C(C)C [compound 55] (Ac-IVLSLD[dV]PIKLK([γGlu-C16 diacid])KILLEQEKQKKQREQAETN[Dap]QILAQV-NH2) | −31% | −23% | 0% | 23 h
2 | 0.19 nM | 4 % I | > 250 nM | nd/0 ^ % | – | CC[C@H](C)[C@H](NC)C(=O)N[C@H](C(=O)N[C@@H](CC(C)C)C(=O)N[C@@H](CO)C(=O)N[C@@H](CC(C)C)C(=O)N[C@@H](CC(=O)O)C(=O)N[C@@H](C(=O)N1CCC[C@H]1C(=O)N[C@H](C(=O)N[C@@H](CCCCN)C(=O)N[C@@H](CC(C)C)C(=O)N[C@@H](CCCCNC(=O)CC[C@H](NC(=O)CCCCCCCCCCCCCCC(=O)O)C(=O)O)C(=O)N[C@@H](CCCCN)C(=O)N[C@H](C(=O)N[C@@H](CC(C)C)C(=O)N[C@@H](CC(C)C)C(=O)N[C@@H](CCC(=O)O)C(=O)N[C@@H](CCC(N)=O)C(=O)N[C@@H](CCC(=O)O)C(=O)N[C@@H](CCCCN)C(=O)N[C@@H](CCC(N)=O)C(=O)N[C@@H](CCCCN)C(=O)N[C@@H](CCCCN)C(=O)N[C@@H](CCC(N)=O)C(=O)N[C@@H](CCCNC(=N)N)C(=O)N[C@@H](CCC(=O)O)C(=O)N[C@@H](CCC(N)=O)C(=O)N[C@@H](C)C(=O)N[C@@H](CCC(=O)O)C(=O)N[C@H](C(=O)N[C@@H](CC(N)=O)C(=O)NC(C)(C)C(=O)N[C@@H](CCC(N)=O)C(=O)N[C@H](C(=O)N[C@@H](CC(C)C)C(=O)N[C@@H](C)C(=O)N[C@@H](CCC(N)=O)C(=O)N[C@H](C(N)=O)C(C)C)[C@@H](C)CC)[C@@H](C)O)[C@@H](C)CC)[C@@H](C)CC)C(C)C)C(C)C [compound 64] (H-[NMeI]VLSLD[dV]PIKLK([γGlu-C16 diacid])KILLEQEKQKKQREQAETN[Aib]QILAQV-NH2) | −25% | −13% | 3% | 23 h
3 | 0.41 nM | 8 % I | > 250 nM | 0% | 13.2% | CC[C@H](C)[C@H](NC(C)=O)C(=O)N[C@H](C(=O)N[C@@H](CC(C)C)C(=O)N[C@@H](CO)C(=O)N[C@@H](CC(C)C)C(=O)N[C@@H](CC(=O)O)C(=O)N[C@@H](C(=O)N1CCC[C@H]1C(=O)N[C@H](C(=O)N[C@@H](CCCCN)C(=O)N[C@@H](CC(C)C)C(=O)N[C@@H](CCCCNC(=O)COCCOCCNC(=O)COCCOCCNC(=O)CC[C@H](NC(=O)CCCCCCCCCCCCCCCCC(=O)O)C(=O)O)C(=O)N[C@@H](CCCCN)C(=O)N[C@H](C(=O)N[C@@H](CC(C)C)C(=O)N[C@@H](CC(C)C)C(=O)N[C@@H](CCC(=O)O)C(=O)N[C@@H](CCC(N)=O)C(=O)N[C@@H](CCC(=O)O)C(=O)N[C@@H](CCCCN)C(=O)N[C@@H](CCC(N)=O)C(=O)N[C@@H](CCCCN)C(=O)N[C@@H](CCCCN)C(=O)N[C@@H](CCC(N)=O)C(=O)N[C@@H](CCCNC(=N)N)C(=O)N[C@@H](CCC(=O)O)C(=O)N[C@@H](CCC(N)=O)C(=O)N[C@@H](C)C(=O)N[C@@H](CCC(=O)O)C(=O)N[C@H](C(=O)N[C@@H](CC(N)=O)C(=O)N[C@@H](C)C(=O)N[C@@H](CCC(N)=O)C(=O)N[C@H](C(=O)N[C@@H](CC(C)C)C(=O)N[C@@H](C)C(=O)N[C@@H](CCC(N)=O)C(=O)N[C@H](C(N)=O)C(C)C)[C@@H](C)CC)[C@@H](C)O)[C@@H](C)CC)[C@@H](C)CC)C(C)C)C(C)C [compound 100] (Ac-IVLSLD[dV]PIKLK([AEEA-AEEA-γGlu-C18 diacid])KILLEQEKQKKQREQAETNAQILAQV-NH2) | −22% | −12% | −9% | >24 h
4 | 0.35 nM | 6 % I | > 250 nM | 0% | 14.7% | CC[C@H](C)[C@H](NC)C(=O)N[C@H](C(=O)N[C@@H](CC(C)C)C(=O)N[C@@H](CO)C(=O)N[C@@H](CC(C)C)C(=O)N[C@@H](CC(=O)O)C(=O)N[C@@H](C(=O)N1CCC[C@H]1C(=O)N[C@H](C(=O)N[C@@H](CCCCN)C(=O)N[C@@H](CC(C)C)C(=O)N[C@@H](CCCCNC(=O)COCCOCCNC(=O)COCCOCCNC(=O)CC[C@H](NC(=O)CCCCCCCCCCCCCCCCC(=O)O)C(=O)O)C(=O)N[C@@H](CCCCN)C(=O)N[C@H](C(=O)N[C@@H](CC(C)C)C(=O)N[C@@H](CC(C)C)C(=O)N[C@@H](CCC(=O)O)C(=O)N[C@@H](CCC(N)=O)C(=O)N[C@@H](CCC(=O)O)C(=O)N[C@@H](CCCCN)C(=O)N[C@@H](CCC(N)=O)C(=O)N[C@@H](CCCCN)C(=O)N[C@@H](CCCCN)C(=O)N[C@@H](CCC(N)=O)C(=O)N[C@@H](CCCNC(=N)N)C(=O)N[C@@H](CCC(=O)O)C(=O)N[C@@H](CCC(N)=O)C(=O)N[C@@H](C)C(=O)N[C@@H](CCC(=O)O)C(=O)N[C@H](C(=O)N[C@@H](CC(N)=O)C(=O)N[C@@H](C)C(=O)N[C@@H](CCC(N)=O)C(=O)N[C@H](C(=O)N[C@@H](CC(C)C)C(=O)N[C@@H](C)C(=O)N[C@@H](CCC(N)=O)C(=O)N[C@H](C(N)=O)C(C)C)[C@@H](C)CC)[C@@H](C)O)[C@@H](C)CC)[C@@H](C)CC)C(C)C)C(C)C [compound 113] (H-[NMeI]VLSLD[dV]PIKLK([AEEA-AEEA-γGlu-C18 diacid])KILLEQEKQKKQREQAETNAQILAQV-NH2) | −31% | −24% | −7% | >24 h
